Each molecule was assayed against T1, phosphatase ABI1 via the co-regulator RCAR11/PYR1 (Arabidopsis thaliana, UniProt O49686+P49597) (assay: In vitro inhibition of the phosphatase ABI1 via the co-regulator RCAR11/PYR1, MUP dephosphorylation). Conditions: in a solution of DMSO and water; fluorescence at 460 nm.
T1 sequence (O49686 1-191): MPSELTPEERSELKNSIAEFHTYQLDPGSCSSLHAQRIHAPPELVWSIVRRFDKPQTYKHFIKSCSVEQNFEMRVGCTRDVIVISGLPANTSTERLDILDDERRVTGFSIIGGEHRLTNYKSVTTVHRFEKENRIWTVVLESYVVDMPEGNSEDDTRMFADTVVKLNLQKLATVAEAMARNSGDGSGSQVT
T1 sequence (P49597 1-434): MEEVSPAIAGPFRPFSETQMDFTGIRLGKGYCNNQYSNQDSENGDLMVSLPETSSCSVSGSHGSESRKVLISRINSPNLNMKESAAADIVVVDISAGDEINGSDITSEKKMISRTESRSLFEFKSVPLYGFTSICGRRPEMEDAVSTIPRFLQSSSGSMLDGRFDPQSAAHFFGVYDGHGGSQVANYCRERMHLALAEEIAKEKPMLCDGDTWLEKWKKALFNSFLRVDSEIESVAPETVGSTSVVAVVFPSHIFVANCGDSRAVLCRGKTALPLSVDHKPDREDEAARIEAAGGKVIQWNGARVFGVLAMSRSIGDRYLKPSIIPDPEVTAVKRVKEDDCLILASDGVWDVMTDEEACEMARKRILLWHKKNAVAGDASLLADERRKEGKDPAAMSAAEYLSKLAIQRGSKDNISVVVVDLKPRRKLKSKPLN
Format: biochemical
Parameters: dose or concentration left out as unconfirmed
Text: Effects of the phytohormone abscisic acid (ABA) on the behavior of plants under abiotic stress and the mechanism of action of ABA are described in the literature (cf. Abrams et al., WO97/23441, Park et al. Science, 2009, 324, 1068; Grill et al. Science, 2009, 324, 1064; Tanokura et al. Biophysics, 2011, 7, 123; Schroeder et al. Plant J. 2010, 61, 290). Therefore, it is possible with the aid of a suitable in vitro test system to derive a correlation between the action of ABA and the stress response of a plant under abiotic stress. In the event of water deficiency (drought stress), plants form the phytohormone abscisic acid (ABA). This binds, along with a co-regulator (Regulatory Component of ABA-Receptor=RCAR according to Grill et al. Science, 2009, 324, 1064 or PYR/PYL according to Cutler et al. Science, 2009, 324, 1068), to a phosphatase (e.g. ABI1, a type 2C protein phosphatase, also abbreviated to PP2C) and inhibits its activity. As a result, a “downstream” kinase (e.g. SnRK2) is no longer dephosphorylated. This kinase, which is thus active, via phosphorylation of transcription factors (e.g. AREB/ABF, cf. Yoshida et al., 2010, 61, 672), switches on a genetic protection program to increase drought stress tolerance. The assay described hereinafter utilizes the inhibition of the phosphatase ABI1 via the co-regulator RCAR11/PYR1 aus Arabidopsis thaliana. For the determination of activity, the dephosphorylation of 4-methylumbelliferyl phosphate (MUP) was measured at 460 nm. The in vitro assay was conducted in Greiner 384-well PS microplates F-well, using two controls: a) 0.5% dimethyl sulfoxide (DMSO) and b) 5 μM abscisic acid (ABA). The assay described here was generally conducted with substance concentrations of the appropriate chemical test substances in a concentration range of 0.1 μM to 100 μM in a solution of DMSO and water. The substance solution thus obtained, if necessary, was stirred with esterase from porcine liver (EC 3.1.1.1) at room temperature for 3 h and centrifuged at 4000 rpm for 30 min. A total volume of 45 μl was introduced into each cavity of the microplate, having the following composition: • 1) 5 μl of substance solution, i.e. a) DMSO 5% or b) abscisic acid solution or c) the corresponding example compound of the general formula (I) dissolved in 5% DMSO. • 2) 20 μl of enzyme buffer mix, composed of a) 40% by vol. of enzyme buffer (10 mL contain equal proportions by volume of 500 mM Tris-HCl pH 8, 500 mM NaCl, 3.33 mM MnCl2, 40 mM dithiothreitol (DTT)), b) 4% by vol. of ABI1 dilution (protein stock solution was diluted so as to give, after addition, a final concentration in the assay of 0.15 μg ABI1/well), c) 4% by vol. of RCAR11 dilution (enzyme stock was diluted so as to give, on addition of the dilution to the enzyme buffer mix, a final concentration in the assay of 0.30 μg enzyme/well), d) 5% by vol. of Tween20 (1%), e) 47% by vol. H2O bi-dist. • 3) 20 μl of substrate mix, composed of a) 10% by vol. of 500 mM Tris-HCl pH8, b) 10% by vol. of 500 mM NaCl, c) 10% by vol. of 3.33 mM MnCl2, d) 5% by vol. of 25 mM MUP, 5% by vol. of Tween20 (1%), 60% by vol. of H2O bi-dist.
Enzyme buffer mix and substrate mix were made up 5 minutes prior to the addition and warmed to a temperature of 35° C. On completion of pipetting of all the solutions and on completion of mixing, the plate was incubated at 35° C. for 20 minutes. Finally, a relative fluorescence measurement was made at 35° C. with a BMG Labtech “POLARstar Optima” microplate reader using a 340/10 nm excitation filter and a 460 nm emission filter. The efficacy of the compounds of the general formula (I) is reported in the table which follows using abscisic acid […] as comparative substance (No. 37) according to the following classification: ++++ (inhibition≧90%), +++ (90%>inhibition≧70%), ++ (70%>inhibition≧50%), + (50%>inhibition≧30%). […]
In the case of `O=C1CCc2cc(NS(=O)(=O)Cc3cccc(F)c3)ccc2N1CC1CCC1` [A21-159], the ABI1 inhibition is reported as “++++ (inhibition≧90%)”. With `O=C1CCc2cc(NS(=O)(=O)Cc3ccc(Cl)cc3)ccc2N1CC1CCC1` [A21-165] the ABI1 inhibition was “++++ (inhibition≧90%)”. With `O=C1CCc2cc(NS(=O)(=O)Cc3ccc(C(F)(F)F)cc3)ccc2N1CC1CCC1` [A21-178] the ABI1 inhibition was “+++ (90%>inhibition≧70%)”. For `N#Cc1ccc(CS(=O)(=O)Nc2ccc3c(c2)CCC(=O)N3CC2CCC2)cc1` [A21-181, N-[1-(Cyclobutylmethyl)-2-oxo-1,2,3,4-tetrahydroquinolin-6-yl]-1-(4-cyanophenyl)methanesulfonamide], the ABI1 inhibition was “++++ (inhibition≧90%)”. For `CCc1ccc(CS(=O)(=O)Nc2ccc3c(c2)CCC(=O)N3CC2CCC2)cc1` [A21-325], the ABI1 inhibition was “++++ (inhibition≧90%)”. `CC(C)(C)c1ccc(CS(=O)(=O)Nc2ccc3c(c2)CCC(=O)N3CC2CCC2)cc1` [A21-332] was tested, and the ABI1 inhibition was “++++ (inhibition≧90%)”. For `CCc1ccc(S(=O)(=O)Nc2ccc3c(c2)CCC(=O)N3CC2CCC2)cc1` [A21-601], the ABI1 inhibition was “++++ (inhibition≧90%)”. With `Cc1ccc(CS(=O)(=O)Nc2ccc3c(c2)CCC(=O)N3CC2CCCC2)cc1` [A22-152] the ABI1 inhibition was “+++ (90%>inhibition≧70%)”. For `O=C1CCc2cc(NS(=O)(=O)Cc3ccc(Cl)cc3)ccc2N1CC1CCCC1` [A22-165], the ABI1 inhibition was “+++ (90%>inhibition≧70%)”. For `N#Cc1ccc(CS(=O)(=O)Nc2ccc3c(c2)CCC(=O)N3CC2CCCC2)cc1` [A22-181], the ABI1 inhibition was “+++ (90%>inhibition≧70%)”. With `O=C1CCc2c(cc(F)c(NS(=O)(=O)Cc3ccc(F)cc3)c2F)N1CC1CC1` [A29-158] the ABI1 inhibition was “++ (70%>inhibition≧50%)”. `Cc1ccc(CS(=O)(=O)Nc2ccc3c(c2)CCC(=O)N3CC2CC2(Cl)Cl)cc1` (centres unmarked) [A32-152] was tested, and the ABI1 inhibition was “++ (70%>inhibition≧50%)”. For `O=C1CCc2cc(NS(=O)(=O)Cc3ccc(C(F)(F)F)cc3)ccc2N1CC1CC1(Cl)Cl` (centres unmarked) [A32-178, N-[1-(2′,2′-Dichlorocyclopropylmethyl)-2-oxo-1,2,3,4-tetrahydroquinolin-6-yl]-1-(4-trifluoromethylphenyl)methanesulfonamide], the ABI1 inhibition was “++ (70%>inhibition≧50%)”. `N#Cc1ccc(CS(=O)(=O)Nc2ccc3c(c2)CCC(=O)N3CC2CC2(Cl)Cl)cc1` (centres unmarked) [A32-181] was tested, and the ABI1 inhibition was “+++ (90%>inhibition≧70%)”. For `COCCN1C(=O)CCc2cc(NS(=O)(=O)Cc3ccc(C)cc3)ccc21` [A38-152, N-[1-(Methoxyethyl)-2-oxo-1,2,3,4-tetrahydroquinolin-6-yl]-1-(4-methylphenyl)methanesulfonamide], the ABI1 inhibition was “++++ (inhibition≧90%)”. `COCCN1C(=O)CCc2cc(NS(=O)(=O)Cc3cccc(Cl)c3)ccc21` [A38-166] was tested, and the ABI1 inhibition was “+++ (90%>inhibition≧70%)”. `COCCN1C(=O)CCc2cc(NS(=O)(=O)Cc3ccc(C(F)(F)F)cc3)ccc21` [A38-178] was tested, and the ABI1 inhibition was “++++ (inhibition≧90%)”. In the case of `CCOCCN1C(=O)CCc2cc(NS(=O)(=O)Cc3ccc(C)cc3)ccc21` [A39-152], the ABI1 inhibition is reported as “++++ (inhibition≧90%)”. In the case of `CCOCCN1C(=O)CCc2cc(NS(=O)(=O)Cc3ccc(F)cc3)ccc21` [A39-158], the ABI1 inhibition is reported as “+ (50%>inhibition≧30%)”. In the case of `CCOCCN1C(=O)CCc2cc(NS(=O)(=O)Cc3ccc(C#N)cc3)ccc21` [A39-181], the ABI1 inhibition is reported as “+++ (90%>inhibition≧70%)”. For `CC(C#N)CN1C(=O)CCc2cc(NS(=O)(=O)Cc3ccc(Cl)cc3)ccc21` (centres unmarked) [A47-165], the ABI1 inhibition was “++++ (inhibition≧90%)”. With `N#CCCCN1C(=O)CCc2cc(NS(=O)(=O)Cc3ccc(C#N)cc3)ccc21` [A48-181] the ABI1 inhibition was “++++ (inhibition≧90%)”. In the case of `COCN1C(=O)CCc2cc(NS(=O)(=O)Cc3ccc(Cl)cc3)ccc21` [A49-165], the ABI1 inhibition is reported as “++++ (inhibition≧90%)”. In the case of `COC(=O)CN1C(=O)CCc2cc(NS(=O)(=O)Cc3ccccc3)ccc21` [A50-151], the ABI1 inhibition is reported as “++ (70%>inhibition≧50%)”. With `COC(=O)CN1C(=O)CCc2cc(NS(=O)(=O)Cc3cccc(C)c3)ccc21` [A50-153] the ABI1 inhibition was “++ (70%>inhibition≧50%)”. In the case of `COC(=O)CN1C(=O)CCc2cc(NS(=O)(=O)Cc3ccc(F)cc3)ccc21` [A50-158], the ABI1 inhibition is reported as “+++ (90%>inhibition≧70%)”. `COC(=O)CN1C(=O)CCc2cc(NS(=O)(=O)Cc3ccccc3F)ccc21` [A50-161] was tested, and the ABI1 inhibition was “+++ (90%>inhibition≧70%)”. In the case of `COC(=O)CN1C(=O)CCc2cc(NS(=O)(=O)Cc3ccc(Cl)cc3)ccc21` [A50-165], the ABI1 inhibition is reported as “++++ (inhibition≧90%)”. `COC(=O)CN1C(=O)CCc2cc(NS(=O)(=O)Cc3cccc(Cl)c3)ccc21` [A50-166] was tested, and the ABI1 inhibition was “++ (70%>inhibition≧50%)”. In the case of `COC(=O)CN1C(=O)CCc2cc(NS(=O)(=O)Cc3ccc(Br)cc3)ccc21` [A50-172], the ABI1 inhibition is reported as “++++ (inhibition≧90%)”. With `COC(=O)CN1C(=O)CCc2cc(NS(=O)(=O)Cc3ccc(C#N)cc3)ccc21` [A50-181] the ABI1 inhibition was “+++ (90%>inhibition≧70%)”. In the case of `COC(=O)CN1C(=O)CCc2cc(NS(=O)(=O)CCc3ccc(Cl)cc3)ccc21` [A50-291], the ABI1 inhibition is reported as “++ (70%>inhibition≧50%)”. `COC(=O)CCN1C(=O)CCc2cc(NS(=O)(=O)Cc3ccccc3)ccc21` [A51-151] was tested, and the ABI1 inhibition was “+++ (90%>inhibition≧70%)”. For `COC(=O)CCN1C(=O)CCc2cc(NS(=O)(=O)Cc3ccc(C)cc3)ccc21` [A51-152], the ABI1 inhibition was “++++ (inhibition≧90%)”. For `COC(=O)CCN1C(=O)CCc2cc(NS(=O)(=O)Cc3ccccc3F)ccc21` [A51-161], the ABI1 inhibition was “+++ (90%>inhibition≧70%)”. For `COC(=O)CCN1C(=O)CCc2cc(NS(=O)(=O)Cc3ccccc3Cl)ccc21` [A51-168], the ABI1 inhibition was “++++ (inhibition≧90%)”. With `COC(=O)CCN1C(=O)CCc2cc(NS(=O)(=O)Cc3cccc(Br)c3)ccc21` [A51-173] the ABI1 inhibition was “++ (70%>inhibition≧50%)”. In the case of `COC(=O)CCN1C(=O)CCc2cc(NS(=O)(=O)Cc3ccc([N+](=O)[O-])cc3)ccc21` [A51-175], the ABI1 inhibition is reported as “+++ (90%>inhibition≧70%)”. For `COC(=O)CCN1C(=O)CCc2cc(NS(=O)(=O)Cc3ccccc3[N+](=O)[O-])ccc21` [A51-177], the ABI1 inhibition was “++ (70%>inhibition≧50%)”. For `COC(=O)CCN1C(=O)CCc2cc(NS(=O)(=O)Cc3cccc(C(F)(F)F)c3)ccc21` [A51-179], the ABI1 inhibition was “++ (70%>inhibition≧50%)”. With `CC1(C)CC(=O)N(CC#N)c2ccc(NS(=O)(=O)Cc3ccc(Cl)cc3)cc21` [B16-165] the ABI1 inhibition was “+++ (90%>inhibition≧70%)”.

From US20170027172A1, “USE OF SUBSTITUTE OXO TETRAHYDROQUINOLINE SULFONAMIDES OR SALTS THEREOF FOR RAISING STRESS TOLERANCE OF PLANTS” (BAYER CROPSCIENCE AKTIENGESELLSCHAFT, priority 2014, published 2017)
